≈ marks a conversion by molar mass, not a printed value. Each block holds one compound with its values, some of them ahead of it.
What was measured:
[1] = Passive permeability in MDCK2 cell with low efflux; type: ADME, cell-based, Canis lupus familiaris, MDCK-II; conditions: dog, MDCK
[2] = Lipophilicity, log D of the compound; type: physicochemical; conditions: octanol/water
[3] = target: T1, Mitogen-activated protein kinase kinase kinase kinase 4 (Homo sapiens, UniProt O95819); assay: Inhibition of recombinant human MAP4K4 catalytic domain in presence of 10 uM ATP (Km) by FRET assay
[4] = target: T1, Mitogen-activated protein kinase kinase kinase kinase 4; assay: Inhibition of human MAP4K4 transfected in 293 MSR cells assessed as inhibition of phosphorylation of traf2 at ser/thr residue by ELISA; type: cell-based
[5] = target: T1, Mitogen-activated protein kinase kinase kinase kinase 4; assay: Inhibition of recombinant human MAP4K4 catalytic domain in presence of 1 mM ATP by FRET assay
[6] = Solubility of compound at pH 1.2; type: physicochemical; conditions: buffer
[7] = Solubility of compound at pH 6.5; type: physicochemical; conditions: buffer
Liver microsome = assay: Unbound intrinsic clearance in human liver microsomes; type: ADME
CYP3A4 [8] = target: T2, CYP3A4 (Homo sapiens, UniProt P08684); assay: Inhibition of CYP3A4 (unknown origin) at 3 uM; type: ADME
CYP2D6 = CYP2D6 (Homo sapiens, UniProt P10635); assay: Inhibition of CYP2D6 (unknown origin) at 3 uM; type: ADME
CYP2C8 = target: T3, CYP2C8 (Homo sapiens, UniProt P10632); assay: Inhibition of CYP2C8 (unknown origin) at 3 uM; type: ADME
T3 sequence (P10632 whole entry): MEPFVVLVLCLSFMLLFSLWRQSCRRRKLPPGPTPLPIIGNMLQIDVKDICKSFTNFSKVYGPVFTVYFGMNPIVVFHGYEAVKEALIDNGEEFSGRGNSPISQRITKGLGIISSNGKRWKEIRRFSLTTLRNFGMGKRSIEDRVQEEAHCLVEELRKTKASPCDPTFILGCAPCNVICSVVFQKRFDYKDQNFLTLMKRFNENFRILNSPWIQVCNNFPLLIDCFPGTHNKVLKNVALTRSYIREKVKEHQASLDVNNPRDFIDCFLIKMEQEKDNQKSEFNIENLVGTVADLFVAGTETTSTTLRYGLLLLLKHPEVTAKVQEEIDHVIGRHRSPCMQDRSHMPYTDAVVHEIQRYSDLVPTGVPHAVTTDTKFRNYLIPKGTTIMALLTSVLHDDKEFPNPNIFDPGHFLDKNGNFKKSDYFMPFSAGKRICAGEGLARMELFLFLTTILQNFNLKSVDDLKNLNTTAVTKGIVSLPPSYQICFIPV

CYP2C9 = CYP2C9 (Homo sapiens, UniProt P11712); assay: Inhibition of CYP2C9 (unknown origin) at 3 uM; type: ADME
CYP1A2 = target: T4, CYP1A2 (Homo sapiens, UniProt P05177); assay: Inhibition of CYP1A2 (unknown origin) at 3 uM; type: ADME
T4 sequence (P05177 whole entry): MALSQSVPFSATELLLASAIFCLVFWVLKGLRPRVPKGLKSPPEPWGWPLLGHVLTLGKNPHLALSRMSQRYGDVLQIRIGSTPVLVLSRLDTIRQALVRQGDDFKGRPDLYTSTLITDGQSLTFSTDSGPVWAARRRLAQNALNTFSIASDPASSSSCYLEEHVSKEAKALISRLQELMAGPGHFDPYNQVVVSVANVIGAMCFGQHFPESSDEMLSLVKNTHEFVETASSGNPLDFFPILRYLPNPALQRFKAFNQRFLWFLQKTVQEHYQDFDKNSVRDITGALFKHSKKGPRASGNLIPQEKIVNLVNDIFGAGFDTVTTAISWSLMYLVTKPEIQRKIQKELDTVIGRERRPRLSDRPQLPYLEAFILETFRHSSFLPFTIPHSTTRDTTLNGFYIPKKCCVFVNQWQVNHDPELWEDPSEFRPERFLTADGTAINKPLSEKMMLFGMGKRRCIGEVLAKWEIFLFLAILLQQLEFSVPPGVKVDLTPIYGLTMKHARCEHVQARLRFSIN

[9] = target: Voltage-gated inwardly rectifying potassium channel KCNH2 (Homo sapiens, UniProt Q12809); assay: Inhibition of human ERG transfected in HEK293 cells; type: cell-based
Epithelial cell = assay: Cytotoxicity against human liver epithelial cells
Salmonella typhimurium = assay: Mutagenicity in Salmonella typhimurium by Ames test; type: toxicity, organism-based; conditions: salmonella enterica subsp. enterica serovar typhimurium
CYP3A4 [10] = target: T2, CYP3A4; assay: Time dependent inhibition of CYP3A4 (unknown origin) using midazolam as substrate at 30 uM; type: ADME; conditions: probe midazolam
CYP3A4 [11] = target: T2, CYP3A4; assay: Time dependent inhibition of CYP3A4 (unknown origin) using midazolam as substrate at 60 uM; type: ADME; conditions: probe midazolam
[12] = target: TRAF2 and NCK-interacting protein kinase (Homo sapiens, UniProt Q9UKE5); assay: Inhibition of TNIK (unknown origin) in presence of ATP (Km)
Misshapen-like kinase 1 = Misshapen-like kinase 1 (Homo sapiens, UniProt Q8N4C8); assay: Inhibition of MINK (unknown origin) in presence of ATP (Km)
Cytochrome P450 1A2 = target: T5, Cytochrome P450 1A2 (Homo sapiens, UniProt P05177); assay: Inhibition of CYP1A2 (unknown origin); type: ADME
T5 sequence (P05177 whole entry): T4 sequence (P05177 whole entry)

[13] = Fraction unbound in mouse plasma at 10 mg/kg, po; type: ADME, organism-based
Mus musculus [14] = assay: Inhibition of LPS-induced TNF-alpha level in C57/Bl6 mouse blood at 15 mg/kg, po administered 30 mins prior to LPS challenge measured after […]; type: functional; conditions: C57/BI6, Blood
Plasma = assay: Plasma concentration in C57/Bl6 mouse at 15 mg/kg, po; type: ADME, organism-based, C57/BI6; conditions: in vivo
Mus musculus [15] = assay: Decrease in blood glucose level in ob/ob mouse at 10 mg/kg, po bid for 4 weeks; type: functional; conditions: 672 h

T2 sequence (P08684 whole entry): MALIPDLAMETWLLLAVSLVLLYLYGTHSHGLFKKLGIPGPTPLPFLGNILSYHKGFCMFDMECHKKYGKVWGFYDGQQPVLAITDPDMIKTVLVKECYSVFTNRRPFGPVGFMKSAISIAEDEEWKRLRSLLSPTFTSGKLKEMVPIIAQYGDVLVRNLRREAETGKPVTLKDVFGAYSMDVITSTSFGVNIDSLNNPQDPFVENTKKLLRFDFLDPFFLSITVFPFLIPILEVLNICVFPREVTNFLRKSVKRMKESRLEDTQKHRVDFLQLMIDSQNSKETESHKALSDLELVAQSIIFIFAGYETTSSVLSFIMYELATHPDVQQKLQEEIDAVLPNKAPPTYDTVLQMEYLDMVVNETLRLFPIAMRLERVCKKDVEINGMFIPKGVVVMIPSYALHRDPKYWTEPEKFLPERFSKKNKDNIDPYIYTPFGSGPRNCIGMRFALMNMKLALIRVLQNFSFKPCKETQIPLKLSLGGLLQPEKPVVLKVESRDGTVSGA
T1 sequence (O95819 whole entry, the tested form may be a part): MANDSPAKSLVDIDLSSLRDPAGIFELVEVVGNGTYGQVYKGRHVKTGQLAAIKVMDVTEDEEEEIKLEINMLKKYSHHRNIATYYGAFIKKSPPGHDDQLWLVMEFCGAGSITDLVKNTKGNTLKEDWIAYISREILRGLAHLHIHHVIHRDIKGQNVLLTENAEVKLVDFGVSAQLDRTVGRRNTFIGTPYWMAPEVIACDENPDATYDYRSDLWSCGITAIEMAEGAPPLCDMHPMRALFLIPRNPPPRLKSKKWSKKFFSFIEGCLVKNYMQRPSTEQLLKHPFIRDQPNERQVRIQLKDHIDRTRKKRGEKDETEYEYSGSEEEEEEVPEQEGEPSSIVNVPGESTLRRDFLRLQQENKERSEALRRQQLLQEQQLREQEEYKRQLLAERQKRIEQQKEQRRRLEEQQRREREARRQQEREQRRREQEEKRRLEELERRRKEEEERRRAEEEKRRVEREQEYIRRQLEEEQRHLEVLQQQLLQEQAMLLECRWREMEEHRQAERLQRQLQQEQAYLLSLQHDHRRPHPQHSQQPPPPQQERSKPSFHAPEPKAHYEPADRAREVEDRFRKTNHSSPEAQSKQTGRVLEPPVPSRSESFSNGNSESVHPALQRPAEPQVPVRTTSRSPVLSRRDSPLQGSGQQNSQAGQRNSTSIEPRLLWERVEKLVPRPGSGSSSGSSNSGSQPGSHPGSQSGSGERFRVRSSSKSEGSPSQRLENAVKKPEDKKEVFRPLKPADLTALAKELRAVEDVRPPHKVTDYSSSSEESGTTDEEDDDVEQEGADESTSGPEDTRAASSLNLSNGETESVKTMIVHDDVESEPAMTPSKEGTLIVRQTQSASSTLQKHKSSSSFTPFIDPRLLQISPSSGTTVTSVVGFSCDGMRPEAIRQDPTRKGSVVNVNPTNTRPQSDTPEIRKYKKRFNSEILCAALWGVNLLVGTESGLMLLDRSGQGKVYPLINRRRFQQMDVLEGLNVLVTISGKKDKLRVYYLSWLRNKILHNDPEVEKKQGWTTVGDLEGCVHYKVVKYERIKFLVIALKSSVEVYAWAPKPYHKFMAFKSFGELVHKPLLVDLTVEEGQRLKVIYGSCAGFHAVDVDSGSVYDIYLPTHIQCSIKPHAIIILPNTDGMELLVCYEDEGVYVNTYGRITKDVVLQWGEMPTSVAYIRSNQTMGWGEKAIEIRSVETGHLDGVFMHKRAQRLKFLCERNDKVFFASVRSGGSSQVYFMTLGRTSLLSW
Chain of CYP2C9 (P11712 whole entry): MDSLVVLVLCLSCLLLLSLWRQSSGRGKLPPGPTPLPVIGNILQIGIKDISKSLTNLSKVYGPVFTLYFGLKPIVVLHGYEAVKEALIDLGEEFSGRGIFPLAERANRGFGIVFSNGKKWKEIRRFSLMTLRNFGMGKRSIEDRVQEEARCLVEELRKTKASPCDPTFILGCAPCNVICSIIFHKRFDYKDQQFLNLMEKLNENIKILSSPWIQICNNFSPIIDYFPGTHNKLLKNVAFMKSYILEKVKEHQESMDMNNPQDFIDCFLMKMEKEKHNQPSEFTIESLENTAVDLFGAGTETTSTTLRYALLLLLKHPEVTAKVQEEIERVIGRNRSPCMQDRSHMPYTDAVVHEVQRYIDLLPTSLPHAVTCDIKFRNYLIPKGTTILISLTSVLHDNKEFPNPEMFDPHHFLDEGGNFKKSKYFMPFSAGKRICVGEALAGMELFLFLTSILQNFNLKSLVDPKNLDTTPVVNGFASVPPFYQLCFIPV
Chain of Voltage-gated inwardly rectifying potassium channel KCNH2 (Q12809 whole entry): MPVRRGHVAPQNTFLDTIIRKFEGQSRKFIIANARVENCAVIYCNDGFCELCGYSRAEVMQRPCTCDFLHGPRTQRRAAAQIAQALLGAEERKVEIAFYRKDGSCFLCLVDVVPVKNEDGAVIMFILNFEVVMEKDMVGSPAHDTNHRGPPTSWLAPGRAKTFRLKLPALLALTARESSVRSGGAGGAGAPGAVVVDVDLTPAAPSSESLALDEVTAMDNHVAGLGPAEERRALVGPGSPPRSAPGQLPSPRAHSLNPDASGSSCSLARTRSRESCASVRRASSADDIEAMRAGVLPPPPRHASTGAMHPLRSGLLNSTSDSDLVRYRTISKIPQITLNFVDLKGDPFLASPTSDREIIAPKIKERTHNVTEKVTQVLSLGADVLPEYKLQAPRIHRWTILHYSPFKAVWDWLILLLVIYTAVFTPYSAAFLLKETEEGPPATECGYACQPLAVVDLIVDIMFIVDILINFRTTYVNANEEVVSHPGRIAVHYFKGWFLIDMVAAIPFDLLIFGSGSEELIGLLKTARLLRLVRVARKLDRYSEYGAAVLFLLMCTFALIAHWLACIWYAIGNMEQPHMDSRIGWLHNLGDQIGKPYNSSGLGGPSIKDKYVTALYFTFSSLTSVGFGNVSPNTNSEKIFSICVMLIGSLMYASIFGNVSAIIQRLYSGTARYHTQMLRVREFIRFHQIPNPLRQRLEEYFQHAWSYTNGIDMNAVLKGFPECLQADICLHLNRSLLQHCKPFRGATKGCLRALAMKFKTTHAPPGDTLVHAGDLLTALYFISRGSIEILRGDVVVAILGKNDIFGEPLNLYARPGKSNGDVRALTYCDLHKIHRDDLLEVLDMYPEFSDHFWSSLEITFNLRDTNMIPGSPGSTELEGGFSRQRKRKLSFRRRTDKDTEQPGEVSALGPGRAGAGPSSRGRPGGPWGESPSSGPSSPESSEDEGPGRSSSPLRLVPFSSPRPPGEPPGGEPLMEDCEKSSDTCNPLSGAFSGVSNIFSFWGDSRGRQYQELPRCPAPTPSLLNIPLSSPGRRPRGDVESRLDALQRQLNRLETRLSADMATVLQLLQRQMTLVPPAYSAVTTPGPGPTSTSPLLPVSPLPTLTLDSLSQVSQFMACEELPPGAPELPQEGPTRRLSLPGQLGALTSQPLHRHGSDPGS
Chain of CYP2D6 (P10635 whole entry): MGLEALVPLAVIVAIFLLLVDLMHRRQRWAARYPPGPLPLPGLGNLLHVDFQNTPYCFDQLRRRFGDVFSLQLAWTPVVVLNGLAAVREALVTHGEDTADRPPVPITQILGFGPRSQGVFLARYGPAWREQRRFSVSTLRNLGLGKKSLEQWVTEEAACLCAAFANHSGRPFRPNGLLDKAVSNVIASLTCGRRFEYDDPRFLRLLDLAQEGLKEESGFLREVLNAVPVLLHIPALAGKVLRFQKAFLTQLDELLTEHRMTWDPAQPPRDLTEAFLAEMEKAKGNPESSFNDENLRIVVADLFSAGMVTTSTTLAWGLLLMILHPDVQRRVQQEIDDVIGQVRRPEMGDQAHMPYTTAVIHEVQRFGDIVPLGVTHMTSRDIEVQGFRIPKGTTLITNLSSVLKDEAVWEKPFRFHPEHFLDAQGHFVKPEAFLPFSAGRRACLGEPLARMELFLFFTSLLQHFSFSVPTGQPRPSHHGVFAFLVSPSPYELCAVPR

Papp [1]: 3.5 ×10⁻⁶ cm/s
SMILES: NC(=O)c1ccc(-c2cncc(-c3ccc(OC4CC4)cc3)c2)cc1

logD [2]: 3.6 | IC50 [3]: 94 nM | IC50 [4]: 6300 nM | IC50 [5]: > 10000 nM
SMILES: NC(=O)c1ccc(-c2ncc(-c3ccc(Cl)cc3)o2)cc1

Papp [1]: 4.4 ×10⁻⁶ cm/s
SMILES: NC(=O)c1ccc(-c2cc(-c3ccc(Cl)cc3)ccn2)cc1

Papp [1]: 8.7 ×10⁻⁶ cm/s
SMILES: COc1ccc(-c2cncc(-c3ccc(C(N)=O)cc3)c2)cc1

Papp [1]: 15.6 ×10⁻⁶ cm/s
SMILES: Cn1c(-c2ccc(Cl)cc2)cnc1-c1ccc(C(N)=O)cc1

Papp [1]: 2.9 ×10⁻⁶ cm/s
SMILES: NC(=O)c1ccc(-c2cn(-c3ccc(Cl)cc3)cn2)cc1

SMILES: Nc1ncc(-c2cnc(N)c(-c3ccc(Cl)cc3)c2)cn1
solubility ([6]; read-out: solubility): 3960 µg/mL (≈ 13.3 mM) | solubility [7]: 2 µg/mL (≈ 0.00672 mM) | CL free (Liver microsome): 13 mL/min/kg | inhibition at 3 µM (CYP3A4 [8]): < 15% | inhibition at 3 µM (CYP2D6): < 15% | inhibition at 3 µM (CYP2C8): < 15% | inhibition at 3 µM (CYP2C9): < 15% | inhibition at 3 µM (CYP1A2): < 15% | IC50 [9]: > 10000 nM | IC50 (Epithelial cell): > 300000 nM | Activity (Salmonella typhimurium): Non-toxic | inhibition at 30 µM (CYP3A4 [10]): 8% | inhibition at 60 µM (CYP3A4 [11]): 24%

Papp [1]: 17.2 ×10⁻⁶ cm/s
SMILES: CS(=O)(=O)c1ccc(-c2cc(-c3ccc(O)cc3)cnc2N)cc1

Papp [1]: 6.7 ×10⁻⁶ cm/s
SMILES: CS(=O)(=O)c1ccc(-c2cc(-c3ccc(C(N)=O)cc3)cnc2N)cc1

SMILES: Nc1ccc(-c2cnc(N)c(-c3ccc(Cl)cc3)c2)cn1
IC50 [3]: 3.7 nM | IC50 [4]: 160 nM | Papp [1]: 7.1 ×10⁻⁶ cm/s | solubility [6]: 13000 µg/mL (≈ 43.8 mM) | solubility [7]: 5800 µg/mL (≈ 19.5 mM) | IC50 [12]: 15 nM | IC50 (Misshapen-like kinase 1): 8 nM | CL free (Liver microsome): 89 mL/min/kg | inhibition at 3 µM (CYP3A4 [8]): < 15% | inhibition at 3 µM (CYP2D6): < 15% | inhibition at 3 µM (CYP2C8): < 15% | inhibition at 3 µM (CYP2C9): < 15% | IC50 (Cytochrome P450 1A2): 3000 nM | IC50 [9]: 1800 nM | IC50 (Epithelial cell): > 119000 nM | Activity (Salmonella typhimurium): Toxic | fraction unbound [13]: 0.038 | inhibition in vivo at 15 mg/kg (Mus musculus [14]): > 90% | Cp (Plasma): 439 ng/mL | inhibition in vivo at 10 mg/kg (Mus musculus [15]): 44% | inhibition at 30 µM (CYP3A4 [10]): 54% | inhibition at 60 µM (CYP3A4 [11]): 61%

Papp [1]: 8.7 ×10⁻⁶ cm/s
SMILES: NC(=O)c1ccc(-c2cncc(-c3ccc(Cl)cc3)c2)cc1

IC50 [3]: 248 nM | IC50 [4]: > 30000 nM | IC50 [5]: > 10000 nM
SMILES: NC(=O)c1ccc(-n2cc(-c3ccc(Cl)cc3)cn2)cc1

Papp [1]: 15.7 ×10⁻⁶ cm/s
SMILES: Nc1ncc(-c2cc[nH]c(=O)c2)cc1-c1ccc(Cl)cc1
